The structures appear in SMILES notation. “Also recorded” adds a separate entry of the source.

In data set [1] the test system is HIF-1α. Nature of the data set: HIF-1α expression in PC3 cells (immunoblot of nuclear and whole cell extracts). The class given is cell-based, human. The note with it: normoxic and hypoxic conditions, 4 hours, dose-dependent. From the text:
(§1) See Franklin et al; 1995. […] 20108 USA. Methods: […]
(In general: A western blot detects proteins with antibodies after separation by electrophoresis.)

The next data set relates to LNCaP cells. Nature of the data set: Apoptosis assay (caspase 3 activity) in LNCaP cells. The class given is cell-based, human. The note with it: citrate-producing cells, 6 h. The method, then:
(§2) Immunoblotting: Immunoblotting was carried out as described in Example 2. […] Apoptosis Assay: […] Lonidamine was added into each well at different concentrations, and then incubated for 6 h at 37° C. To assess the caspase 3 activity, the homogeneous buffer and caspase 3 substrate (Promega No G7791; Promega Corporation, 2800 Woods Hollow Road, Madison Wis. USA 53711) were added into each well in the presence or absence of caspase 3 inhibitor (Promega No G5961). The fluorescence intensity of cleaved substrate was determined using a fluorescence plate reader at excitation 485 nm and emission 530 nm.

The test system of data set [2] is human prostate stromal cells. Briefly: Apoptosis assay in primary cultures of human prostate stromal cells. It is filed as cell-based. The settings on record: 6 h. The protocol:
(§3) Primary Cell Cultures: Primary cultures of human prostate epithelial cells (Cambrex No. CC-2555) and human prostate stromal cells (Cambrex No. CC-2508) were obtained from Cambrex Bio Science Rockland, Inc. (191 Thomaston Street, Rockland, Me. 04841). Apoptosis Assay: […] Lonidamine was added into each well at different concentrations, and then incubated for 6 h at 37° C. To assess the caspase 3 activity, the homogeneous buffer and caspase 3 substrate (Promega No G7791; Promega Corporation, 2800 Woods Hollow Road, Madison Wis. USA 53711) were added into each well in the presence or absence of caspase 3 inhibitor (Promega No G5961). The fluorescence intensity of cleaved substrate was determined using a fluorescence plate reader at excitation 485 nm and emission 530 nm.

For data set [3] the following is noted: higher doses of lonidamine; usually mild; cited from earlier work.
Data set [4] concerns HIF-1α. Nature of the data set: HIF-1α expression in LNCaP cells (immunoblot of nuclear and whole cell extracts). It is filed as cell-based, human. The note with it: hypoxic conditions (oxygen level <0.1%).
Text: as §1

The next data set concerns PC3 cells. Briefly: Apoptosis assay (caspase 3 activity) in PC3 cells. The class given is cell-based, human. The note with it: PC3, citrate-oxidizing cells; 6 h. The protocol: as §2
Data set [5] concerns human prostate epithelial cells. Briefly: Apoptosis assay in primary cultures of human prostate epithelial cells. The class given is cell-based. The protocol:
as §3

For data set [6], the system named is actin, caspase 3, NF-κB, IκBα. Nature of the data set: Protein levels of actin, caspase 3, NF-κB, IκBα in prostate cell lines (immunoblot). The class given is cell-based, human. The settings on record: except at 800 μM concentration.
Protocol: Methods: Cells were plated at a density of 5×10^5 cells into a dish, and then maintained in 37° C. incubator (5% CO2) for 2 days. Prior to the assay, cells were rinsed twice with pre-warmed (37° C.) RPMI-1640 Medium (ATCC No. 30-2001; 10 mM HEPES; 1 mM sodium pyruvate; 2 mM L-glutamine; 4500 mg glucose/L; 1500 mg sodium bicarbonate/L). Cells were incubated with 2 ml culture medium in the absence or presence of lonidamine at different concentrations for 4 hours at 37° C. either under normoxia or hypoxia (oxygen level<0.1%). At the end of the incubation, the dish was placed on ice, and the cells were washed rapidly twice with cold PBS buffer (4° C.). For nuclear extracts, cells were lysed with buffer A (10 mM Tris, pH7.5; 1.5 mM MgCl2; 10 mM KCl and protease inhibitors and buffer C (0.5 M NaCl; 20 mM Tris pH7.5; 1.5 mM MgCl2; 20% glycerol and protease inhibitors), sequentially. The protease inhibitors used in the experiments were a cocktail of five protease inhibitors (500 mM AEBSF-HCl, 1 mg/ml Aprotinin, 1 mM E-64, 500 mM EDTA and 1 mM Leupeptin; Calbiochem NO 539131). For whole cell lysate, cells were lysed with 150 mM NaCl; 10 mM Tris ph7.5; 10 mM EDTA; 1% Triton X-100; 0.5% Deoxycholate, and protease inhibitors. The protein concentration was measured using a Bio-Rad protein assay. Equal amounts of protein were loaded on a SDS-PAGE gel. […]

Consider `O=C(O)c1nn(Cc2ccc(Cl)cc2Cl)c2ccccc12` [lonidamine, 1-(2,4-dichlorobenzyl)-1H-indazole-3-carboxylic acid], for which, in the data set on HIF-1α [1], the “level of HIF-1α protein in nuclear and whole-cell extracts” value is “reduced the level of HIF-1α protein”. Also, the “activation of caspase 3 (apoptosis)” value in the data set on LNCaP cells is on record as “induced activation of caspase 3”. For the same compound, the induction of apoptosis entry is “induction of apoptosis was not observed” in data set [2] and “induced apoptosis only in prostate epithelial cells in a dose-dependent manner; also recorded: induces apoptosis” in data set [5] (primary prostate epithelial cells, 6 h). For the same compound, the side effects result in data set [3] was “myalgia and testicular pain”. Further, the “effect on HIF-1α expression, LNCaP compared with PC3 cells” value in the data set on HIF-1α [4] is listed as “more pronounced in LNCaP cells than in PC3 cells”. In the data set on PC3 cells, the “activation of caspase 3 (apoptosis), LNCaP compared with PC3 cells” value was “significantly greater in LNCaP cells”. In addition, the “induction of apoptosis, epithelial compared with stromal cells” value in data set [5] (primary cultures) was “significantly greater in primary cultures of prostate epithelial cells”. For the same compound, the “inhibition of protein levels of actin, caspase 3, NF-κB, or IκBα” value in data set [6] is on record as “no detectable inhibition”.
